The structures appear in SMILES notation.

Experimental findings from patent US20190314407A1, “COMPOSITIONS AND METHODS FOR THE EXPANSION OF HEMATOPOIETIC STEM AND PROGENITOR CELLS” (Magenta Therapeutics Inc., priority 2017, published 2019) are described below.

Experiment [1] concerns CD34+ cells from mPB and bone marrow (BM). Kind of experiment: Ex vivo expansion of lentivirally transduced or CRISPR/Cas9 B2M-edited CD34+ cells (Example 2). Conditions: AHR antagonist = Compound 26. In kind it is cell-based, human. Here is the method:
Lentiviral Transduction: Cryopreserved CD34+ cells from mobilized peripheral blood (mPB) were thawed and cultured overnight in media with cytokines and either vehicle (DMSO) or the AHR antagonist (expanded). The following day, cells were plated on retronectin-coated plates and transduced with a lentiviral vector, containing a green fluorescent protein (GFP) transgene under the control of the MND promoter, at an MOI of 50 in the presence of vehicle or the AHR antagonist. 24 hours later, cells were harvested, washed, and resuspended in media with cytokines and the appropriate compound.
CRISPR/Cas9 Editing and Expansion: Cryopreserved CD34+ cells from mPB and bone marrow (BM) were thawed and cultured overnight in media with cytokines and either vehicle or the AHR antagonist. Cells were electroporated with Cas9 protein (Aldevron) and synthetic, chemically-modified gRNA (Synthego) targeting beta-2-microglobulin (B2M) as a ribonucleotide protein (RNP).

The subject of experiment [2] is CD34+CD90+ cord blood cells. The experiment is described as follows: Cell cycle phase of CD34+CD90+ cells in culture, cord blood (Example 5). Conditions: cytokines, same in presence or absence of Compound 26 (500 nM). The experiment is classed as cell-based.
Experiment [3] addresses T1, AHR (Homo sapiens, UniProt P35869).
T1 sequence (P35869 11-848): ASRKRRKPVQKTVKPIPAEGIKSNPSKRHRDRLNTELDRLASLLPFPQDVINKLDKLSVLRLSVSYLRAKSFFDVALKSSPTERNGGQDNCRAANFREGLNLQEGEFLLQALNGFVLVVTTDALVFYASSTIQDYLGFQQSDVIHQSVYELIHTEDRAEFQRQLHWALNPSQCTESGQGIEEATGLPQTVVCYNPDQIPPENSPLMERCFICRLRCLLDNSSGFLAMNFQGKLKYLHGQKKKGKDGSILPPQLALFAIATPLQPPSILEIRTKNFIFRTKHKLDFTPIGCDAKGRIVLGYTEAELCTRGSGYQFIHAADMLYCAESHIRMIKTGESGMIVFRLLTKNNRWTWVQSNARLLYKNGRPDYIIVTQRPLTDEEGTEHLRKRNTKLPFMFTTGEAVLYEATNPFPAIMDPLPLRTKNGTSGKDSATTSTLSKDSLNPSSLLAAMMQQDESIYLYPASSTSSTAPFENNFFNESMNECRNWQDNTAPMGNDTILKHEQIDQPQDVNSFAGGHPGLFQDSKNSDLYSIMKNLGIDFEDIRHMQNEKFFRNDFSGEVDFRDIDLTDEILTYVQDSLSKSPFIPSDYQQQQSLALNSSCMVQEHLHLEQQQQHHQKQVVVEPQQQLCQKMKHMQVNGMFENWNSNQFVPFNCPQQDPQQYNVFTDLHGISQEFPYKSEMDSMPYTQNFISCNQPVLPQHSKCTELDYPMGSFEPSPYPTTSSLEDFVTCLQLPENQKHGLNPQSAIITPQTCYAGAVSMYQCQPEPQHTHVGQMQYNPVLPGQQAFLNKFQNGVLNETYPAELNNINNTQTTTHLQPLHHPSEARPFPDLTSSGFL
The experiment is described as follows: Dioxin response element luciferase reporter assay. The experiment is classed as cell-based. On the technique in general: A reporter such as luciferase makes a cellular process visible.

For experiment [4], the system named is primary human CD34+ cells. The experiment is described as follows: Ex vivo expansion of primary human CD34+ cells in the presence of cytokines (Example 1). Conditions: relative to vehicle-cultured CB derived CD34+ cells. In kind it is cell-based. Here is the method: (§1) Methods. […] Cell number and immunophenotype were assessed by flow cytometry, and HSC function was evaluated by cell and molecular assays in vitro. The expanded cells were transplanted into sub-lethally irradiated NSG mice to evaluate engraftment potential in vivo. For editing studies, mPB and BM CD34+ cells were electroporated with CRISPR/Cas9 RNPs targeting the beta-2 microglobulin (B2M) cell surface protein. Editing rates were evaluated by flow cytometry based on loss of protein expression and TIDE analysis. Edited cells were expanded in the presence of AHR antagonist or vehicle and transplanted into NSG mice. The AHR antagonist used in the experiments described in this Example is Compound 26 herein. Engraftment and editing rates were evaluated by flow cytometry of the peripheral blood and bone marrow.

The subject of experiment [5] is NSG mice. The experiment is described as follows: Transplant of gene-modified, expanded CD34+ cells into NSG mice (Example 2). In kind it is in vivo, mouse. Conditions: AHR antagonist = Compound 26. The source says:
Transplant into NSG mice: All of the progeny from cultured cells were transplanted into sub-lethally irradiated, female, 6-8 week old NSG mice. Engraftment and transduction/editing rates were monitored monthly by flow cytometry. “Minimally manipulated” controls were transplanted one day after editing for a total culture time of 2 days.

The test system of experiment [6] is mPB and BM derived CD34+ cells. The experiment is described as follows: Expansion of CRISPR/Cas9 B2M-edited mPB and BM CD34+ cells (Example 1). In kind it is cell-based, human. Conditions: 7 days of expansion, AHR antagonist = Compound 26. On the procedure: as §1
The subject of experiment [7] is mobilized peripheral blood (mPB) CD34+ cells. Kind of experiment: Gene correction rate after prestimulation and electroporation with gRNA/Cas9 and oligonucleotide donor (Example 5). In kind it is cell-based. Conditions: mPB cells prestimulated 4 days in the presence of Compound 26 versus 1 day prior to electroporation; FIG. 13A. On the procedure:
Mobilized peripheral blood (mPB) CD34+ or cord blood (CB) CD34+ cells were thawed and pre-stimulated, i.e., cultured, in serum-free media (SFEM media supplemented with cytokines SCF, IL6, TPO, and FLT3L) in the presence or absence of Compound 26 (500 nM). Cells were pre-stimulated 1, 2, 3, or 4 days prior to electroporation with gRNA/Cas9 and oligonucleotide donor. Cells were cultured for an additional 8 days after electroporation and profiled at 2, 4, 6, or 8 days post-electroporation using a Trucount-based method of HSC quantification of CD34, CD90, and CD45RA. Cells were subcultured to maintain cell density at less than 1×10^6 cells/mL. On day 8, genomic DNA was extracted from bulk cell cultures, and correction rate was assessed by qPCR. Number of corrected cells was determined by number of total cells at the indicated timepoint multiplied by the correction rate for that pre-stimulation condition.

The test system of experiment [8] is NSG mice. Kind of experiment: Transplant of expanded cells into sub-lethally irradiated NSG mice, engraftment and editing rates by flow cytometry (Example 1). The experiment is classed as in vivo, mouse. Conditions: for engraftment in NSG mice: relative to vehicle-cultured CB derived CD34+ cells. Here is the method:
as §1
In general terms: A flow cytometer gives signals particle by particle.

For experiment [9], the system named is CD34+CD90+ mobilized peripheral blood cells. Kind of experiment: Cell cycle phase of CD34+CD90+ cells in culture, mobilized peripheral blood (Example 5). In kind it is cell-based. Conditions: cytokines, same in presence or absence of Compound 26 (500 nM).
The mark [10] stands for this setting: mPB CD34+ cells, 7 days culture, FIGS. 2A-2D.
Setting [11] is: B2M-edited expanded cells, AHR antagonist = Compound 26.

Turning to `COCCC(C)c1cnc2c(NCCc3c[nH]c4ccccc34)nc(-c3cncc(F)c3)cn12` (stereo not shown) [Compound 26], the “quantity of GFP+CD34+CD90+ cells” value in [1] (GFP lentivirus-transduced mPB CD34+ cells, 7 days, versus vehicle or no treatment) is listed as “increased the quantity of GFP+CD34+CD90+ cells to a greater extent than vehicle treatment”. The editing rates in [1] (both mPB and BM CD34+ cells, CRISPR/Cas9 B2M) was 80%. Also, the “quantities of total cells, CD34+ cells, and CD34+CD90+ cells relative to vehicle-treated and untreated cells” value in [1] (cells subject to CRISPR/Cas9-mediated B2M editing, FIGS. 5A-5E) is “substantially higher quantities”; in [1] (cells subject to lentiviral transduction, FIGS. 3A-3E), “substantially higher quantities”. Also, in [1] (setting [10]), the “quantity of CD34+CD90+ cells relative to vehicle-treated and untreated cells” value is recorded as “substantial increase”. The “total quantity of cells relative to vehicle-treated cells” value in experiment [1] (setting [10]) is on record as “increase in the total quantity of cells”. Moreover, the “days in culture after which substantially all CD34+CD90+ cells exit the G0 phase and enter the replicative cell cycle” value in [2] and in experiment [9] was “about 3 days” each time. For the same molecule, in experiment [3], the “AHR antagonism in the dioxin response element luciferase reporter assay” value is on record as “complete AHR antagonism”. In experiment [3] (dioxin response element luciferase reporter assay), the “increase in potency compared to SR1” value came to 12 fold. The “increase in CD34+ number” value in experiment [4] is 6 fold. Moreover, the “retention of B2M− phenotype relative to vehicle-treated cells following transplantation” value in experiment [5] (NSG mice) was “greater retention”. The “improvement in engraftment compared to vehicle-cultured cells” value in experiment [5] (edited, expanded cells, both the PB and BM of mice after 16 weeks) is “greater than 2 fold”. Moreover, the “engraftment rates relative to minimally-manipulated cells” value in experiment [5] (expanded, edited mPB and BM cells, FIGS. 7A-7N) is “higher engraftment rates”. The “editing rates following transplantation into NSG mice” value in [5] (mPB and BM CD34+ cells) is on record as “maintained”. Also, the “engraftment compared to minimally manipulated and vehicle controls” value in experiment [5] (mPB and BM hematopoietic stem cells transplanted into NSG mice) is reported as “increased engraftment”. Besides, the “engraftment rates relative to vehicle-cultured cells” value in experiment [5] (transduced/edited, expanded mPB cells in NSG mice) is recorded as “higher engraftment rates”. The “CD34+CD90+ cells in expanded culture versus vehicle-treated cells” value in experiment [6] (B2M-edited cells) turned out to be 3.4 fold. In experiment [6] (mPB and BM CD34+ cells edited with CRISPR/Cas9 RNPs), the “loss of the target protein (B2M)” value was found to be 84%. For the same molecule, the “rates of gene correction” value in [7] is “higher rates of gene correction”. Besides, in experiment [8] (setting [11]), the “human cells in the periphery of the mice showing loss of target protein (average)” value was above 75%. In experiment [8] (setting [11]), the “increase in engraftment compared to mice receiving vehicle-treated cells” value is given as “greater than 2 fold”. Also, the “engraftment in NSG mice” value in [8] was “significant increase”.
As for `CC(C)n1cnc2c(NCCc3ccc(O)cc3)nc(-c3csc4ccccc34)nc21` [SR1, reference compound], the “increase in CD34+ number” value in experiment [4] is 6 fold. Besides, the “engraftment in NSG mice” value in [8] is listed as “significant increase”.
